Reference: US6936585B2, “Corticotropin releasing factor 2 receptor agonists” (priority 2002, dated 2005)
Peptide text beside a SMILES is read from it.

How the values were obtained:
[1] = biological target: T1, CRF1R (Homo sapiens, UniProt P34998); test: CRF1R agonist activation (EC50 / Emax), called comparative CRF binding; format: cell-based; details: read-out: CRF1R Emax
T1 sequence (P34998 24-415): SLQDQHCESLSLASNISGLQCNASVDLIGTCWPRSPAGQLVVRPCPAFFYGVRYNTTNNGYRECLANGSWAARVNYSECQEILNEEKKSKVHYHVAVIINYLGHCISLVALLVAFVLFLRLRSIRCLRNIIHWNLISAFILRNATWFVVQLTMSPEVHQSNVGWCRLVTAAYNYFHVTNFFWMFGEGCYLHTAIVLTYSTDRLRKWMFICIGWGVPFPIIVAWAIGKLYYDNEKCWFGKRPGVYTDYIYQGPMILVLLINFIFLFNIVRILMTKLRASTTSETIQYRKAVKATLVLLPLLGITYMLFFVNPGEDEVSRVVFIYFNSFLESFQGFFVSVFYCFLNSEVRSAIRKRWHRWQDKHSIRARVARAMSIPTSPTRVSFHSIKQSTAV
Description: (§1) The pharmacological activity and selectivity of the peptides of present invention can be determined using published test procedures. See, e.g, U.S. patent application Ser. No. 09/799,978 (now issued U.S. Pat. No. 6,670,140). Because CRF2R and CRF1R are homologous proteins, it is expected that a certain proportion of agonists for CRF2R will also function as agonists of CRF1R. As discussed above, activation of CRF1R induces activation of the HPA axis since increased corticosteroid production leads to skeletal muscle atrophy. In most cases in which an increase in muscle mass or function is desired, it is not desirable to activate the HPA axis.
(§2) Cell-based assays include the steps of contacting cells which express CRF1R or CRF2R with a peptide of the present invention or control and measuring activation of the CRFR by measuring the expression or activity of components of the CRFR signal transduction pathways.
(§3) For example, after contact with a peptide of the present invention, lysates of the cells can be prepared and assayed for induction of cAMP. cAMP is induced in response to Gαs activation. Because Gαs is activated by receptors other than CRFR and because a test peptide may be exerting its effect through CRFRs or by another mechanism, two control comparisons are relevant for determining whether the peptide increases levels of cAMP via activation of a CRFR. One control compares the cAMP level of cells contacted with the peptide and the cAMP level of cells contacted with a control compound (i.e., the vehicle in which the peptide is dissolved).
(§4) In one example, cAMP induction is measured with the use of DNA constructs containing the cAMP responsive element linked to any of a variety of reporter genes can be introduced into cells expressing CRFRs. Such reporter genes include, but are not limited to, chloramphenicol acetyltransferase (CAT), luciferase, glucuronide synthetase, growth hormone, fluorescent proteins (e.g., Green Fluorescent Protein), or alkaline phosphatase. Following exposure of the cells to the peptide, the level of reporter gene expression can be quantitated to determine the peptide's ability to increase cAMP levels and thus determine the peptide's ability to activate the CRFR.
(§5) In addition to using cells expressing full length CRFRs, cells can be engineered which express CRFRs containing the ligand binding domain of the receptor coupled to, or physically modified to contain, reporter elements or to interact with signaling proteins. For example, a wild type CRFR or CRFR fragment can be fused to a G-protein resulting in activation of the fused G-protein upon agonist binding to the CRFR portion of the fusion protein. […] In addition, alternative pathways for induction of the CRE reporter could be eliminated to reduce basal levels.

[2] = biological target: T2, CRF2R (Homo sapiens, UniProt Q13324); test: CRF2R agonist activation (EC50 / Emax), called comparative CRF binding; format: cell-based; details: read-out: CRF2R Emax
T2 sequence (Q13324 1-411): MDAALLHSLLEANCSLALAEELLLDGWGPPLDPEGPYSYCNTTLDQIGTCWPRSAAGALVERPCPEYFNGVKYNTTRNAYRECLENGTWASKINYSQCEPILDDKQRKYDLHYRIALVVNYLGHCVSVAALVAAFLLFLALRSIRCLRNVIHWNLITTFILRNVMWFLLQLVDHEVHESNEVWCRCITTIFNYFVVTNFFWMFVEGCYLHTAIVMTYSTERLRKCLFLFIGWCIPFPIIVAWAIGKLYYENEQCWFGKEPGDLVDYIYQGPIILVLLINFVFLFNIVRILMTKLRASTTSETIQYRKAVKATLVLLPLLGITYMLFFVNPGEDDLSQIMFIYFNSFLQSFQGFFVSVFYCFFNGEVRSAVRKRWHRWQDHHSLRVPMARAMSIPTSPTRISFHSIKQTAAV
Description: as §1, §2, §3, §4, §5

SMILES | Emax [1] [%] | Emax [2] [%]
CC[C@H](C)[C@H](N)C(=O)N[C@H](C(=O)N[C@@H](CC(C)C)C(=O)N[C@@H](CO)C(=O)N[C@@H](CC(C)C)C(=O)N[C@@H](CC(=O)O)C(=O)N[C@H](C(=O)N1CCC[C@H]1C(=O)NCC(=O)N1CCC[C@H]1C(=O)N[C@@H](CC(C)C)C(=O)N[C@@H](CC(C)C)C(=O)N[C@@H](CCC(N)=O)C(=O)N[C@H](C(=O)N[C@@H](CC(C)C)C(=O)N[C@@H](CC(C)C)C(=O)N[C@@H](CCC(=O)O)C(=O)N[C@@H](CCC(N)=O)C(=O)N[C@H](C(=O)N[C@@H](CCCCN)C(=O)N[C@@H](CCC(N)=O)C(=O)N[C@@H](CCC(=O)O)C(=O)N[C@@H](C)C(=O)N[C@@H](C)C(=O)N[C@@H](CCCNC(=N)N)C(=O)N[C@@H](CCC(=O)O)C(=O)N[C@@H](CCC(N)=O)C(=O)N[C@@H](C)C(=O)N[C@H](C(=O)N[C@H](C(=O)N[C@@H](CC(N)=O)C(=O)N[C@@H](C)C(=O)N[C@@H](CCCNC(=N)N)C(=O)N[C@H](C(=O)N[C@@H](CC(C)C)C(=O)N[C@@H](C)C(=O)N[C@@H](CCCNC(=N)N)C(=O)N[C@H](C(N)=O)C(C)C)[C@@H](C)CC)[C@@H](C)O)[C@@H](C)O)[C@@H](C)O)[C@@H](C)CC)C(C)C)C(C)C [compound 5] (H-IVLSLDVPGPLLQILLEQTKQEAAREQATTNARILARV-NH2) | 9 | 12
CC[C@H](C)[C@H](N)C(=O)N[C@H](C(=O)N[C@@H](CC(C)C)C(=O)N[C@@H](CO)C(=O)N[C@@H](CC(C)C)C(=O)N[C@@H](CC(=O)O)C(=O)N[C@H](C(=O)N1CCC[C@H]1C(=O)N[C@H](C(=O)NCC(=O)N[C@@H](CC(C)C)C(=O)N[C@@H](CC(C)C)C(=O)N[C@@H](CCC(N)=O)C(=O)N[C@H](C(=O)N[C@@H](CC(C)C)C(=O)N[C@@H](CC(C)C)C(=O)N[C@@H](CCC(=O)O)C(=O)N[C@@H](CCC(N)=O)C(=O)N[C@@H](C)C(=O)N[C@@H](CCCNC(=N)N)C(=O)N[C@@H](C)C(=O)N[C@@H](CCCNC(=N)N)C(=O)N[C@@H](C)C(=O)N[C@@H](C)C(=O)N[C@@H](CCCNC(=N)N)C(=O)N[C@@H](CCC(=O)O)C(=O)N[C@@H](CCC(N)=O)C(=O)N[C@@H](C)C(=O)N[C@H](C(=O)N[C@H](C(=O)N[C@@H](CCC(N)=O)C(=O)N[C@@H](C)C(=O)N[C@@H](CCCNC(=N)N)C(=O)N[C@H](C(=O)N[C@@H](CC(C)C)C(=O)N[C@@H](C)C(=O)N[C@@H](CCCNC(=N)N)C(=O)N[C@H](C(N)=O)C(C)C)[C@@H](C)CC)[C@@H](C)O)[C@@H](C)O)[C@@H](C)CC)[C@@H](C)CC)C(C)C)C(C)C [compound 9] (H-IVLSLDVPIGLLQILLEQARARAAREQATTQARILARV-NH2) | 10 | 34
CC[C@H](C)[C@H](NC(=O)[C@H](CC(=O)O)NC(=O)[C@H](CC(C)C)NC(=O)[C@H](CC(C)C)NC(=O)[C@H](CCCCN)NC(=O)[C@H](CCCNC(=N)N)NC(=O)[C@H](CC(N)=O)NC(=O)[C@H](CO)NC(=O)[C@H](Cc1c[nH]cn1)NC(=O)[C@H](C)NC(=O)[C@H](CCC(N)=O)NC(=O)[C@H](CCC(N)=O)NC(=O)[C@H](C)NC(=O)[C@H](CC(C)C)NC(=O)[C@H](CCC(N)=O)NC(=O)[C@H](CC(=O)O)NC(=O)[C@H](C)NC(=O)[C@H](CCCCN)NC(=O)[C@@H](NC(=O)[C@H](CCSC)NC(=O)[C@H](CCC(=O)O)NC(=O)[C@H](CC(C)C)NC(=O)[C@@H](NC(=O)[C@H](CCC(=O)O)NC(=O)[C@H](CCCNC(=N)N)NC(=O)[C@H](CC(C)C)NC(=O)[C@H](CC(C)C)NC(=O)[C@H](Cc1c[nH]cn1)NC(=O)[C@H](Cc1ccccc1)NC(=O)[C@@H]1CCCN1C(=O)[C@H](CC(C)C)NC(=O)[C@H](CC(=O)O)NC(=O)[C@H](CC(C)C)NC(=O)[C@H](CO)NC(=O)[C@@H](NC(=O)[C@@H]1CCCN1C(=O)[C@@H]1CCCN1C(=O)[C@H](CCC(=O)O)NC(=O)[C@H](CCC(N)=O)NC(=O)[C@@H](N)CO)[C@@H](C)CC)C(C)C)[C@@H](C)O)C(=O)N[C@@H](C)C(N)=O [compound 104] | 11.1 | 4.5
CC[C@H](C)[C@H](N)C(=O)N[C@H](C(=O)N[C@@H](CC(C)C)C(=O)N[C@@H](CO)C(=O)N[C@@H](CC(C)C)C(=O)N[C@@H](CC(=O)O)C(=O)N[C@H](C(=O)N1CCC[C@H]1C(=O)N[C@H](C(=O)NCC(=O)N[C@@H](CC(C)C)C(=O)N[C@@H](CC(C)C)C(=O)N[C@@H](CCC(N)=O)C(=O)N[C@H](C(=O)N[C@@H](CC(C)C)C(=O)N[C@@H](CC(C)C)C(=O)N[C@@H](CCC(=O)O)C(=O)N[C@@H](CCC(N)=O)C(=O)N[C@H](C(=O)N[C@@H](CCCCN)C(=O)N[C@@H](C)C(=O)N[C@@H](CC(=O)O)C(=O)N[C@@H](C)C(=O)N[C@@H](C)C(=O)N[C@@H](CCCNC(=N)N)C(=O)N[C@@H](CCC(=O)O)C(=O)N[C@@H](CCC(N)=O)C(=O)N[C@@H](C)C(=O)N[C@H](C(=O)N[C@H](C(=O)N[C@@H](CC(N)=O)C(=O)N[C@@H](C)C(=O)N[C@@H](CCCNC(=N)N)C(=O)N[C@H](C(=O)N[C@@H](CC(C)C)C(=O)N[C@@H](C)C(=O)N[C@@H](CCCNC(=N)N)C(=O)N[C@H](C(N)=O)C(C)C)[C@@H](C)CC)[C@@H](C)O)[C@@H](C)O)[C@@H](C)O)[C@@H](C)CC)[C@@H](C)CC)C(C)C)C(C)C [compound 108] (H-IVLSLDVPIGLLQILLEQTKADAAREQATTNARILARV-NH2; N-terminus assumed) | 3 | 97
CC[C@H](C)[C@H](N)C(=O)N[C@H](C(=O)N[C@@H](CC(C)C)C(=O)N[C@@H](CO)C(=O)N[C@@H](CC(C)C)C(=O)N[C@@H](CC(=O)O)C(=O)N[C@H](C(=O)N1CCC[C@H]1C(=O)N[C@H](C(=O)NCC(=O)N[C@@H](CC(C)C)C(=O)N[C@@H](CC(C)C)C(=O)N[C@@H](CCC(N)=O)C(=O)N[C@H](C(=O)N[C@@H](CC(C)C)C(=O)N[C@@H](CC(C)C)C(=O)N[C@@H](CCC(=O)O)C(=O)N[C@@H](CCC(N)=O)C(=O)N[C@@H](C)C(=O)N[C@@H](CCCCN)C(=O)N[C@@H](C)C(=O)N[C@@H](CCCNC(=N)N)C(=O)N[C@@H](C)C(=O)N[C@@H](C)C(=O)N[C@@H](CCCNC(=N)N)C(=O)N[C@@H](CCC(=O)O)C(=O)N[C@@H](CCC(N)=O)C(=O)N[C@@H](C)C(=O)N[C@H](C(=O)N[C@H](C(=O)N[C@@H](CC(N)=O)C(=O)N[C@@H](C)C(=O)N[C@@H](CCCNC(=N)N)C(=O)N[C@H](C(=O)N[C@@H](CC(C)C)C(=O)N[C@@H](C)C(=O)N[C@@H](CCCNC(=N)N)C(=O)N[C@H](C(N)=O)C(C)C)[C@@H](C)CC)[C@@H](C)O)[C@@H](C)O)[C@@H](C)CC)[C@@H](C)CC)C(C)C)C(C)C [compound 109] (H-IVLSLDVPIGLLQILLEQAKARAAREQATTNARILARV-NH2; N-terminus assumed) | 6.7 | 91.7
